Experimental data reported in patent US6939845B2, “Fragrance precursors” (Givaudan SA, priority 2000, dated 2005).

Assay: Stability tests in aqueous buffer solutions
Format: physicochemical
Details: for Stability at pH 2.5: aqueous buffer pH 2.5, 24 h at 37° C.; for Stability at pH 7: aqueous buffer pH 7, 24 h at 37° C.; for Stability at pH 9.5: aqueous buffer pH 9.5, 24 h at 37° C.

SMILES	Stability at pH 2.5	Stability at pH 7	Stability at pH 9.5
CCCCCCCC1CCC(OCC(=O)c2cc3c(cc2C)C(C)(C)C(C)CC3(C)C)O1 (stereo not drawn) [compound 2, 2-(5-Heptyl-tetrahydro-furan-2-yloxy)-1-(3,5,5,6,8,8-hexamethyl-5,6,7,8-tetrahydro-naphtalen-2-yl)-ethanone]	stable	stable	stable
CCCCCCCC1CCC(OCC(=O)c2ccc(OC)cc2)O1 (stereo not drawn) [compound 4, 2-(5-Heptyl-tetrahydro-furan-2-yloxy)-1-(4-methoxy-phenyl)-ethanone]	unstable	stable	stable
C/C=C/CCC1CCCC(OCC(=O)c2cc3c(cc2C)C(C)(C)C(C)CC3(C)C)O1 (stereo not drawn) [compound 5, 1-(3,5,5,6,8,8-Hexamethyl-5,6,7,8-tetrahydro-naphthalen-2-yl)-2-(6-pent-3-enyl-tetrahydro-pyran-2-yloxy)-ethanone]	stable	stable	stable
C/C=C/CCC1CCCC(OCC(=O)c2ccc3ccccc3c2)O1 (stereo not drawn) [compound 6, 1-(Naphtalen-2-yl)-2-(6-pent-3-enyl-tetrahydro-pyran-2-yloxy)-ethanone]	unstable	stable	stable

Next, values leading:

Stability at pH 2.5	Stability at pH 7	Stability at pH 9.5	SMILES
stable	stable	stable	Cc1cc2c(cc1C(=O)COC1CCC3(CCC(C)CC3)O1)C(C)(C)CC(C)C2(C)C (stereo not drawn) [compound 1, 1-(3,5,5,6,8,8-Hexamethyl-5,6,7,8-tetrahydro-naphtalen-2-yl)-2-(8-methyl-1-oxa-spiro[4.5]dec-2-yloxy)-ethanone]
unstable	stable	stable	CCCCCCCC1CCC(OCC(=O)c2ccc3ccccc3c2)O1 (stereo not drawn) [compound 3, 2-(5-Heptyl-tetrahydro-furan-2-yloxy)-1-naphtalen-2-yl-ethanone]
